SMILES strings stand for the structures. Read-outs that look alike come from different tables or passages of the source.

Data on two molecules can be found in patent publication US20060105969A1, “Anthelmintic compositions” (priority 1999, published 2006).

The test system of this experiment is L4 Heartworm (D. immitis). Description: In vitro L4 heartworm (D. immitis) larval motility assay. Type of experiment: cell-based, Dirofilaria immitis.

On to `CO[C@H]1C[C@H](O[C@@H]2/C(C)=C/C[C@@H]3C[C@@H](C[C@]4(CC[C@H](C)[C@@H](C5CCCCC5)O4)O3)OC(=O)[C@@H]3C=C(C)/C(=N/O)[C@H]4OC/C(=C\C=C\[C@@H]2C)[C@]43O)O[C@@H](C)[C@@H]1O` [(1), 5-oximino 22,23-dihydro-25-cyclohexylayermectin B1 monosaccharide], for which the “effect in causing mortality or paralysis” value is recorded as “only a modest effect”. Besides, the “Observation score (larval motility), duplicate observations” value (“Observation score (larval motility)” below) (1 mcg/ml, 2 h post treatment) is on record as 5/5. The “Observation score (larval motility)” value (1 mcg/ml, 4 h post treatment) is recorded as 5/5. The “Observation score (larval motility)” value (1 mcg/ml, 24 h post treatment) was 5/5. Under “1 mcg/ml, 48 h post treatment”, the “Observation score (larval motility)” value is 5/5. Moreover, where the note is “1 mcg/ml, 72 h post treatment”, the “Observation score (larval motility)” value is 5/5. Moreover, the “Observation score (larval motility)” value (10 mcg/ml, 2 h post treatment) was 2/2. The “Observation score (larval motility)” value (10 mcg/ml, 4 h post treatment) was 2/0. In addition, the “Observation score (larval motility)” value (10 mcg/ml, 24 h post treatment) is given as 3/3. Moreover, where the note is “10 mcg/ml, 48 h post treatment”, the “Observation score (larval motility)” value was 4/4. Under “10 mcg/ml, 72 h post treatment”, the “Observation score (larval motility)” value is 3/4.
In the case of `N#Cc1nn(-c2c(Cl)cc(C(F)(F)F)cc2Cl)c(N)c1[S+]([O-])C(F)(F)F` (stereo not shown) [Fipronil, 5-amino-3-cyano-1-(2,6-dichloro-4-trifluorome-thylphenyl)-4-trifluoromethylsulphinylpyrazole], the “Observation score (larval motility)” value is listed as 5/5 and the “effect in causing mortality or paralysis” value is reported as “no observable effect at all”.
